Data on four compounds can be found in patent US20230200216A1, “ORGANIC LIGHT-EMITTING DEVICE” (CANON KABUSHIKI KAISHA, priority 2021, published 2023).

The data set can be described thus: Sublimability: decomposition temperature (TG/DTA, 5% mass loss) minus sublimation temperature. In kind it is physicochemical. Conditions: 5% mass reduction, sublimation: Ar flow, vacuum 1×10^−1 Pa. The source says:
Table 4 presents the results of comparisons in sublimability between exemplified compound RD21 serving as the first guest and compound 1 and between exemplary compound RD30 serving as the first guest and compound 2. As an evaluation of sublimability, comparisons are made of the temperature difference between the sublimation temperature and the decomposition temperature (ΔT=decomposition temperature−sublimation temperature). A larger temperature difference can be said to indicate higher sublimability. With regard to the decomposition temperature, TG/DTA measurement was performed, and the temperature at which a reduction in mass reached 5% was defined as the decomposition temperature. With regard to the sublimation temperature, the sublimation purification was performed by slowly increasing the temperature while allowing Ar to flow at a degree of vacuum of 1×10^−1 Pa, and the temperature at which a sufficient sublimation rate was reached was defined as the sublimation temperature.

Structures are written as SMILES.

On to `CC(C)(C)c1cc2cc(C(C)(C)C)cc3c4ccc5c6cc7c(-c8ccccc8)c8c9ccc%10c%11cc(C(C)(C)C)cc%12cc(C(C)(C)C)cc(c%13ccc(c8c(-c8ccccc8)c7cc6c6ccc(c(c1)c23)c4c65)c9c%13%10)c%12%11` [Compound 1], for which the “ΔT = decomposition temperature − sublimation temperature” value was found to be 40 °C.

Take `c1ccc(-c2ccc(-c3ccccc3)c3c2-c2ccc4c5ccc6c7c(ccc(c8ccc-3c2c48)c75)-c2c(-c3ccc4ccccc4c3)ccc(-c3ccc4ccccc4c3)c2-6)cc1` [Compound 2]: the “ΔT = decomposition temperature − sublimation temperature” value worked out at 60 °C.

Take `c1ccc(-c2ccccc2-c2c3cc4c(cc3c(-c3ccccc3)c3c5ccc6c7cccc8cccc(c9ccc(c23)c5c69)c87)c2ccc3c5cccc6cccc(c7ccc4c2c37)c65)cc1` [Exemplified compound RD21]: the “ΔT = decomposition temperature − sublimation temperature” value was 100 °C.

As to `c1ccc(-c2ccccc2-c2ccc(-c3ccccc3-c3ccccc3)c3c2-c2ccc4c5ccc6c7c(ccc(c8ccc-3c2c48)c75)-c2c(-c3ccccc3)ccc(-c3ccccc3)c2-6)cc1` [Exemplified compound RD30], the “ΔT = decomposition temperature − sublimation temperature” value was 130 °C.
